Laboratory results published in patent US9302999B2, “Substituted triazoles as herbicides” (E. I. DU PONT DE NEMOURS AND COMPANY, priority 2012, dated 2016).

What was measured:
Type in all cases: in vivo
[1] = tested on: lambsquarters (Chenopodium album); experiment: Test C pre-/postemergence: lambsquarters
Method in brief: (§1)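 Visual injury scored 0–100 (100 = complete control) against untreated controls after 13–15 greenhouse days. Surfactant-containing solvent formulations applied either to soil after sowing (loam/sand) or over 1- to 4-leaf plants, 2–18 cm tall.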

[2] = tested on: pigweed (Amaranthus retroflexus); experiment: Test A pre-/postemergence: pigweed
Method in brief: (§2)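 Plants in loam–sand blend were treated with test chemicals in non-phytotoxic solvent with surfactant, either as preemergence directed soil spray or postemergence at 2–10 cm, one- to two-leaf stage. After about ten days in greenhouse, injury was rated visually against untreated controls on a 0–100 scale (100 = complete control).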

[3] = tested on: rice (Oryza sativa); experiment: Test B flooded paddy: rice; conditions: Flood; 250 g ai/ha; applied to paddy water at 2-leaf stage; visually evaluated after 13 to 15 days
Method in brief: (§3)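 Greenhouse assay lasting 13 to 15 days. Treatment was into water flooding pots 3 cm deep, at the 2-leaf stage, with that level sustained afterwards. Scores compare treated with control plants visually, 100 denoting complete control and 0 no effect; a dash marks no test result.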

[4] = tested on: soybean (Glycine max); experiment: Test C pre-/postemergence: soybean
Method in brief: as §1

[5] = tested on: barnyardgrass (Echinochloa crus-galli); experiment: Test B flooded paddy: barnyardgrass; conditions: Flood; 250 g ai/ha; applied to paddy water at 2-leaf stage; visually evaluated after 13 to 15 days
Method in brief: as §3

[6] = tested on: barnyardgrass (Echinochloa crus-galli); experiment: Test A pre-/postemergence: barnyardgrass
Method in brief: as §2

[7] = tested on: wheat (Triticum aestivum); experiment: Test A pre-/postemergence: wheat
Method in brief: as §2

[8] = tested on: winter wheat (Triticum aestivum); experiment: Test C pre-/postemergence: winter wheat
Method in brief: as §1

[9] = tested on: ryegrass, Italian (Italian ryegrass, Lolium multiflorum); experiment: Test C pre-/postemergence: ryegrass, Italian
Method in brief: as §1

[10] = tested on: pigweed (Amaranthus retroflexus); experiment: Test C pre-/postemergence: pigweed
Method in brief: as §1

[11] = tested on: sedge, umbrella (small-flower umbrella sedge Cyperus difformis); experiment: Test B flooded paddy: sedge, umbrella; conditions: Flood; 250 g ai/ha; applied to paddy water at 2-leaf stage; visually evaluated after 13 to 15 days
Method in brief: as §3

[12] = Postemergence, 31 g ai/ha, scale 0 to 100 (0 no effect, 100 complete control)
[13] = Postemergence, 62 g ai/ha, scale 0 to 100 (0 no effect, 100 complete control)
[14] = Postemergence, 125 g ai/ha, scale 0 to 100, 0 no effect, 100 complete control
[15] = Postemergence, 250 g ai/ha, scale 0 to 100 (0 no effect, 100 complete control)
[16] = Preemergence, 31 g ai/ha, scale 0 (no effect) to 100 (complete control)
[17] = Preemergence, 62 g ai/ha, scale of 0 to 100, 0 is no effect, 100 is complete control
[18] = Preemergence, 125 g ai/ha, scale 0 to 100, 0 no effect, 100 complete control
[19] = Preemergence, 250 g ai/ha, scale 0 to 100, 0 no effect, 100 complete control
[20] = Postemergence, 125 g ai/ha, 0 to 100 scale, 0 is no effect, 100 is complete control
[21] = Postemergence, 500 g ai/ha, 0 to 100 scale, 0 is no effect, 100 is complete control
[22] = Preemergence, 125 g ai/ha, 0 to 100 scale where 0 is no effect and 100 is complete control
[23] = Preemergence, 500 g ai/ha, 0 to 100 scale (0 no effect, 100 complete control)

## CCCc1nn(-c2ccc(F)cc2)nc1Oc1ccnc(C(F)(F)F)c1 [Compound 168]
[1]; [12]
  Plant response rating, Lambsquarters: 80
[1]; [13]
  Plant response rating, Lambsquarters: 95
[1]; [14]
  Plant response rating, Lambsquarters: 95
[1]; [15]
  Plant response rating, Lambsquarters: 95
[1]; [16]
  Plant response rating, Lambsquarters: 98
[1]; [17]
  Plant response rating, Lambsquarters: 98
[1]; [18]
  Plant response rating, Lambsquarters: 98
[1]; [19]
  Plant response rating, Lambsquarters: 98
[2]; [20]
  Plant response rating, Pigweed: 100
[2]; [21]
  Pigweed plant response rating: 100
[2]; [22]
  Plant response rating, Pigweed: 100
[2]; [23]
  Plant response rating, Pigweed: 100
[3]
  Plant response rating, Rice (0 to 100 scale, 0 is no effect, 100 is complete control): 60
[4]; [12]
  Plant response rating, Soybean: 30
[4]; [13]
  Plant response rating, Soybean: 35
[4]; [14]
  Plant response rating, Soybean: 60
[4]; [15]
  Plant response rating, Soybean: 60
[4]; [16]
  Plant response rating, Soybean: 5
[4]; [17]
  Plant response rating, Soybean: 10
[4]; [18]
  Plant response rating, Soybean: 10
[4]; [19]
  Plant response rating, Soybean: 35
[5]
  Plant response rating, Barnyardgrass (0 to 100 scale, 0 is no effect, 100 is complete control): 80
[6]; [20]
  Plant response rating, Barnyardgrass: 90
[6]; [21]
  Barnyardgrass plant response rating: 90
[6]; [22]
  Plant response rating, Barnyardgrass: 90
[6]; [23]
  Plant response rating, Barnyardgrass: 100
[7]; [20]
  Plant response rating, Wheat: 40
[7]; [21]
  Wheat plant response rating: 50
[7]; [22]
  Plant response rating, Wheat: 40
[7]; [23]
  Plant response rating, Wheat: 60
[8]; [12]
  Plant response rating, Wheat: 20
[8]; [13]
  Plant response rating, Wheat: 20
[8]; [14]
  Plant response rating, Wheat: 35
[8]; [15]
  Plant response rating, Wheat: 45
[8]; [16]
  Plant response rating, Wheat: 5
[8]; [17]
  Plant response rating, Wheat: 40
[8]; [18]
  Plant response rating, Wheat: 40
[8]; [19]
  Plant response rating, Wheat: 60
[9]; [12]
  Plant response rating, Ryegrass, Italian: 10
[9]; [13]
  Plant response rating, Ryegrass, Italian: 35
[9]; [14]
  Plant response rating, Ryegrass, Italian: 60
[9]; [15]
  Plant response rating, Ryegrass, Italian: 80
[9]; [16]
  Plant response rating, Ryegrass, Italian: 70
[9]; [17]
  Plant response rating, Ryegrass, Italian: 98
[9]; [18]
  Plant response rating, Ryegrass, Italian: 100
[9]; [19]
  Plant response rating, Ryegrass, Italian: 100
[10]; [12]
  Plant response rating, Pigweed: 80
[10]; [13]
  Plant response rating, Pigweed: 98
[10]; [14]
  Plant response rating, Pigweed: 98
[10]; [15]
  Plant response rating, Pigweed: 98
[10]; [16]
  Plant response rating, Pigweed: 100
[10]; [17]
  Plant response rating, Pigweed: 100
[10]; [18]
  Plant response rating, Pigweed: 100
[10]; [19]
  Plant response rating, Pigweed: 100
[11]
  Plant response rating, Sedge, Umbrella (0 to 100 scale, 0 is no effect, 100 is complete control): 85
